Experimental data as given in ChEMBL document CHEMBL4190322, “Structure-based development of novel triazoles and related thiazolotriazoles as anticancer agents and Cdc25A/B phosphatase inhibitors. Synthesis, in vitro biological evaluation, molecular docking and in silico ADME-T studies” (Eur J Med Chem, 2017).
pIC50: −log10 of the molar value. The source made the active and inactive calls. The calls are words filed in the database; no cut-off is given here.

What was measured:
CCRF-CEM = experiment: Growth inhibition of human CCRF-CEM cells at 10 uM after 48 hrs by SRB assay relative to control; type: functional; details: read-out: GI
K562 = experiment: Growth inhibition of human K562 cells at 10 uM after 48 hrs by SRB assay relative to control; type: functional; details: K562, 48 h, read-out: GI
SR = experiment: Growth inhibition of human SR cells at 10 uM after 48 hrs by SRB assay relative to control; type: functional; details: read-out: GI
RPMI-8226 = experiment: Growth inhibition of human RPMI8226 cells at 10 uM after 48 hrs by SRB assay relative to control; type: functional; details: RPMI-8226, 48 h, read-out: GI
HL-60 = experiment: Growth inhibition of human HL60 cells at 10 uM after 48 hrs by SRB assay relative to control; type: functional
HOP-92 = experiment: Growth inhibition of human HOP92 cells at 10 uM after 48 hrs by SRB assay relative to control; type: functional; details: HOP-92, 48 h, read-out: GI
NCI-H226 = experiment: Growth inhibition of human NCI-H226 cells at 10 uM after 48 hrs by SRB assay relative to control; type: functional; details: for inhibition of growth at 10 µM: NCI-H226, 48 h, read-out: GI
NCI-H522 = experiment: Growth inhibition of human NCI-H522 cells at 10 uM after 48 hrs by SRB assay relative to control; type: functional; details: NCI-H522, 48 h, read-out: GI
HCT-116 = experiment: Growth inhibition of human HCT116 cells at 10 uM after 48 hrs by SRB assay relative to control; type: functional; details: for inhibition of growth at 10 µM: HCT-116, 48 h, read-out: GI
KM12 = experiment: Growth inhibition of human KM12 cells at 10 uM after 48 hrs by SRB assay relative to control; type: functional; details: KM12, 48 h, read-out: GI
SF-268 = experiment: Growth inhibition of human SF268 cells at 10 uM after 48 hrs by SRB assay relative to control; type: functional; details: SF-268, 48 h, read-out: GI
U-251 = experiment: Growth inhibition of human U251 cells at 10 uM after 48 hrs by SRB assay relative to control; type: functional; details: U-251, 48 h, read-out: GI
SK-MEL-2 = experiment: Growth inhibition of human SK-MEL-2 cells at 10 uM after 48 hrs by SRB assay relative to control; type: functional; details: SK-MEL-2, 48 h, read-out: GI
SK-MEL-5 = experiment: Growth inhibition of human SK-MEL-5 cells at 10 uM after 48 hrs by SRB assay relative to control; type: functional; details: SK-MEL-5, 48 h, read-out: GI
UACC-257 = experiment: Growth inhibition of human UACC257 cells at 10 uM after 48 hrs by SRB assay relative to control; type: functional
UACC-62 = experiment: Growth inhibition of human UACC62 cells at 10 uM after 48 hrs by SRB assay relative to control; type: functional; details: UACC-62, 48 h, read-out: GI
OVCAR-4 = experiment: Growth inhibition of human OVCAR4 cells at 10 uM after 48 hrs by SRB assay relative to control; type: functional; details: OVCAR-4, 48 h, read-out: GI
SK-OV-3 = experiment: Growth inhibition of human SKOV3 cells at 10 uM after 48 hrs by SRB assay relative to control; type: functional; details: SK-OV-3, 48 h, read-out: GI
A498 = experiment: Growth inhibition of human A498 cells at 10 uM after 48 hrs by SRB assay relative to control; type: functional; details: A498, 48 h, read-out: GI
CAKI-1 = experiment: Growth inhibition of human Caki1 cells at 10 uM after 48 hrs by SRB assay relative to control; type: functional; details: CAKI-1, 48 h, read-out: GI
RXF 393 = experiment: Growth inhibition of human RXF393 cells at 10 uM after 48 hrs by SRB assay relative to control; type: functional; details: for inhibition of growth at 10 µM: RXF 393, 48 h, read-out: GI
MCF7 = experiment: Growth inhibition of human MCF7 cells at 10 uM after 48 hrs by SRB assay relative to control; type: functional; details: MCF7, 48 h, read-out: GI
MDA-MB-468 = experiment: Growth inhibition of human MDA-MB-468 cells at 10 uM after 48 hrs by SRB assay relative to control; type: functional; details: for inhibition of growth at 10 µM: MDA-MB-468, 48 h, read-out: GI
Malme-3M = experiment: Growth inhibition of human MALME-3M cells at 10 uM after 48 hrs by SRB assay relative to control; type: functional; details: read-out: GI
[1] = target: T1, M-phase inducer phosphatase 1 (Homo sapiens, UniProt P30304); experiment: Inhibition of human CDC25A using OMFP as substrate after 15 mins by fluorescence assay
T1 sequence (P30304 whole entry): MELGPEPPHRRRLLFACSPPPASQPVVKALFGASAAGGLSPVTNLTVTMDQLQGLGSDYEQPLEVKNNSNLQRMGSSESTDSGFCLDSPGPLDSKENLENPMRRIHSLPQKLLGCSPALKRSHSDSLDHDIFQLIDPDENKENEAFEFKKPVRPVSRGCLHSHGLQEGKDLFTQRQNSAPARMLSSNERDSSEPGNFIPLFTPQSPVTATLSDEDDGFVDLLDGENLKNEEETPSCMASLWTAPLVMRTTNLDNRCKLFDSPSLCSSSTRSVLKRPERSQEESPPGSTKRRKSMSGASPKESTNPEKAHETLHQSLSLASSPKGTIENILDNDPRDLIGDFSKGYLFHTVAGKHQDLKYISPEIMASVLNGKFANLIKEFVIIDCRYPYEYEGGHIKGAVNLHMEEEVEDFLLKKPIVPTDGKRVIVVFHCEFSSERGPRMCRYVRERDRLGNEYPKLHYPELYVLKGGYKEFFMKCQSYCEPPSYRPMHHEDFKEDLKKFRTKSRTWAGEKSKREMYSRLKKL

[2] = target: T2, M-phase inducer phosphatase 2 (Homo sapiens, UniProt P30305); experiment: Inhibition of human CDC25B using OMFP as substrate after 15 mins by fluorescence assay
T2 sequence (P30305 whole entry): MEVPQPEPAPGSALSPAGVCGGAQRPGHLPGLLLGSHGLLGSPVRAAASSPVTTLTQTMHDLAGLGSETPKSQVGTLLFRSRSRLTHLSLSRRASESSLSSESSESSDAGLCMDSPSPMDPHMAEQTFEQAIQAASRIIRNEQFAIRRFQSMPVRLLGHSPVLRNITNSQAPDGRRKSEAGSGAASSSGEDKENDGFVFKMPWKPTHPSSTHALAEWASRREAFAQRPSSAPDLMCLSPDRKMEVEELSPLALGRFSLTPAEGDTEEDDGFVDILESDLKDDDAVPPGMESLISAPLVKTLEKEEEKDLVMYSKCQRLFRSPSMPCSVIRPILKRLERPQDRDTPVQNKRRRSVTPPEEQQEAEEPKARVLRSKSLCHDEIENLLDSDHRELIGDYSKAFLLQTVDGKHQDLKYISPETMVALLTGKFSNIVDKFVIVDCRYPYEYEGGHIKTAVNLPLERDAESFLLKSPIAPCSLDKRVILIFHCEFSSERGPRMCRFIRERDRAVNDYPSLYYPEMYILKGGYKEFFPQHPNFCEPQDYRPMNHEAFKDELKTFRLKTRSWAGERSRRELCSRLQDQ

Structure (SMILES)	inhibition of growth at 10 µM (CCRF-CEM) [%]	inhibition of growth at 10 µM (K562) [%]	inhibition of growth at 10 µM (SR) [%]	inhibition of growth at 10 µM (RPMI-8226) [%]	inhibition of growth at 10 µM (HOP-92) [%]	inhibition of growth at 10 µM (NCI-H522) [%]	inhibition of growth at 10 µM (KM12) [%]	inhibition of growth at 10 µM (SF-268) [%]	inhibition of growth at 10 µM (U-251) [%]	inhibition of growth at 10 µM (SK-MEL-2) [%]	inhibition of growth at 10 µM (SK-MEL-5) [%]	inhibition of growth at 10 µM (UACC-62) [%]	inhibition of growth at 10 µM (OVCAR-4) [%]	inhibition of growth at 10 µM (SK-OV-3) [%]	inhibition of growth at 10 µM (A498) [%]	inhibition of growth at 10 µM (CAKI-1) [%]	inhibition of growth at 10 µM (MCF7) [%]	inhibition of growth at 10 µM (Malme-3M) [%]	pIC50 [1]	pIC50 [2]	further results
COc1ccc(Cc2nnc(SCC(=O)c3ccc(Cl)cc3)n2-c2ccccc2)cc1	7.71	26.7	24.1	13.7	24.1	21	5.87	3.38	10.1	11.5	7	13.7	22	7.83	24.5	13.5	6.26	16.9	4.51	4.70	growth inhibition (GI) (HL-60): inactive; inhibition of growth at 10 µM (NCI-H226): 4%; growth inhibition (GI) (HCT-116): inactive; growth inhibition (GI) (UACC-257): inactive; inhibition of growth at 10 µM (RXF 393): 2%; inhibition of growth at 10 µM (MDA-MB-468): 8.55%
COc1ccc(Cc2nnc(SCC(=O)Nc3ccc(Cl)cc3)n2Cc2ccccc2)cc1	22.4	34.5	25.7	22.5	29.8	29.3	16.7	12	5.5	17.2	4.45	38	11.8	16.2	16	21.4	11.1	5.6	4.85	5.08	growth inhibition (GI) (HL-60): inactive; inhibition of growth at 10 µM (NCI-H226): 4.45%; inhibition of growth at 10 µM (HCT-116): 11%; growth inhibition (GI) (UACC-257): inactive; growth inhibition (GI) (RXF 393): inactive; growth inhibition (GI) (MDA-MB-468): inactive
COc1ccc(Cc2nnc(SCC(=O)Nc3ccc(Cl)cc3)n2-c2ccccc2)cc1	21.4	25	31.2	20.6	30	22.3	14.5	12.6	4.12	3.18	3.39	18.8	1.8	14.1	15.5	13.7	4.1	11.7	4.48	4.65	growth inhibition (GI) (HL-60): inactive; growth inhibition (GI) (NCI-H226): inactive; inhibition of growth at 10 µM (HCT-116): 2%; growth inhibition (GI) (UACC-257): inactive; inhibition of growth at 10 µM (RXF 393): 3.85%; growth inhibition (GI) (MDA-MB-468): inactive
COc1ccc(Cc2nnc(SCC(=O)c3ccc(Cl)cc3)n2-c2ccc(C)cc2)cc1	23	53.5	20	25	36.9	23	7.12	1.22	10.4	10	1.52	5.42	18.6	1.07	46	6.12	8.76	12	4.69	4.76	inhibition of growth at 10 µM (HL-60; HL-60, 48 h, read-out: GI): 26.4%; inhibition of growth at 10 µM (NCI-H226): 3%; growth inhibition (GI) (HCT-116): inactive; growth inhibition (GI) (UACC-257): inactive; growth inhibition (GI) (RXF 393): inactive; inhibition of growth at 10 µM (MDA-MB-468): 11%
COc1ccc(Cc2nnc(SCC(=O)c3ccc(Cl)cc3)n2Cc2ccccc2)cc1	20	29.2	22.2	26.4	39.3	30	10	11.8	8.87	13	5.52	14.8	10	17	35.2	23.7	10	3	4.94	5.17	growth inhibition (GI) (HL-60): inactive; inhibition of growth at 10 µM (NCI-H226): 10%; inhibition of growth at 10 µM (HCT-116): 11.6%; inhibition of growth at 10 µM (UACC-257; UACC-257, 48 h, read-out: GI): 6.9%; inhibition of growth at 10 µM (RXF 393): 16%; inhibition of growth at 10 µM (MDA-MB-468): 16%
